Results from US10934298B2, “Substituted pyrazolo[1,5-a]pyrimidines for the treatment of medical disorders” (BIAL—BioTech Investments, Inc., priority 2016, dated 2021).

Molecular target: T1, glucocerebrosidase (Gcase) (Homo sapiens, UniProt P04062)
T1 construct: micellar solution containing 10 nM GCase and 100 nM saposin C
T1 sequence (P04062 40-536): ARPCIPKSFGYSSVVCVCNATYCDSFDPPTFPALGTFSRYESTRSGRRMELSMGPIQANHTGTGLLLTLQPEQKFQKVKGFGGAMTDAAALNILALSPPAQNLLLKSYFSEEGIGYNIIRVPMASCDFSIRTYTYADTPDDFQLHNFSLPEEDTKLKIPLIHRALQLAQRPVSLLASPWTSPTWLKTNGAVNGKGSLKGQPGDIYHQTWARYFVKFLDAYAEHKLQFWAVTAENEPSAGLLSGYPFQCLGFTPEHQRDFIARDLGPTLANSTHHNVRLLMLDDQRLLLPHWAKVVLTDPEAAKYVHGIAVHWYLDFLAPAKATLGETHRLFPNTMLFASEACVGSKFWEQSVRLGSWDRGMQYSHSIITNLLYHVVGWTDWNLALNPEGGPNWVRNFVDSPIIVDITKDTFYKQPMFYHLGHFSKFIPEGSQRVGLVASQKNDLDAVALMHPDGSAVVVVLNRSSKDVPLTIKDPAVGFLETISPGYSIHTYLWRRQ
Test: Glucocerebrosidase (Gcase) activation assay with 4-methylumbelliferyl-beta-D-glucopyranoside substrate, saposin C and phosphatidylserine/triton micelles, fluorescence readout
Assay type: biochemical
Conditions: for Percent Gcase Activation, 0.1 μM Test Compound: test compound at 0.1 μM; for Percent Gcase Activation, 1 μM Test Compound: test compound at 1.0 μM
Method in brief: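 Test compounds are first screened at 1.0 and 0.1 μM final, then titrated in 8 points (3-fold from 5 μM) against human GCase with saposin C in phosphatidylserine/triton X-100 micelles at pH 4.7. Reactions run 15 min at room temperature, with fluorescence read at 365/440 nm.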

| SMILES | Percent Gcase Activation, 0.1 μM Test Compound | Percent Gcase Activation, 1 μM Test Compound |
| --- | --- | --- |
| Cc1cc(-c2ccc3ocnc3c2)nc2c(C(=O)N[C@H](C)C(F)(F)F)cnn12 [III-167] | *** (greater than 20% Gcase activation) | +++ (Gcase activation greater than 60%) |
| Cc1cc(-c2ccc3ocnc3c2)nc2c(C(=O)N[C@@H](C)C(F)(F)F)cnn12 [III-168] | *** (greater than 20% Gcase activation) | +++ (Gcase activation greater than 60%) |
| Cc1cc(-c2ccc3ocnc3c2)nc2c(C(=O)NC(C)C(F)(F)F)cnn12 (centres unmarked) [III-169] | *** (greater than 20% Gcase activation) | +++ (Gcase activation greater than 60%) |
| Cc1cc(-n2ccc(Cl)n2)nc2c(C(=O)NC(C)C(F)(F)F)cnn12 (centres unmarked) [III-170] | ** (Gcase activation in the range of 10% up to 20%) | ++ (Gcase activation in the range of 30% up to 60%) |
| Cc1cc(-n2ccc(F)n2)nc2c(C(=O)NC(C3CC3)C(F)(F)F)cnn12 (centres unmarked) [III-172] | *** (greater than 20% Gcase activation) | +++ (Gcase activation greater than 60%) |
| Cc1cc(-n2ccc(F)n2)nc2c(C(=O)N[C@H](C3CC3)C(F)(F)F)cnn12 [III-173] | *** (greater than 20% Gcase activation) | +++ (Gcase activation greater than 60%) |
| Cc1cc(-n2ccc(F)n2)nc2c(C(=O)N[C@@H](C3CC3)C(F)(F)F)cnn12 [III-174] | *** (greater than 20% Gcase activation) | +++ (Gcase activation greater than 60%) |
| Cc1cc(-c2cccc(-c3ncccn3)n2)nc2c(C(=O)NC(C3CC3)C(F)(F)F)cnn12 (centres unmarked) [III-175] | * (less than 10% Gcase activation) | + (less than 30% Gcase activation) |
| Cc1cc(-c2cccc(-c3ncon3)c2)nc2c(C(=O)NC(C3CC3)C(F)(F)F)cnn12 (centres unmarked) [III-176] | *** (greater than 20% Gcase activation) | +++ (Gcase activation greater than 60%) |
| Cc1cc(-c2cccc(-c3ncncn3)c2)nc2c(C(=O)NC(C3CC3)C(F)(F)F)cnn12 (centres unmarked) [III-177] | *** (greater than 20% Gcase activation) | +++ (Gcase activation greater than 60%) |
| Cc1cc(-c2ccns2)nc2c(C(=O)NC(C)C(F)(F)F)cnn12 (centres unmarked) [III-178] | ** (Gcase activation in the range of 10% up to 20%) | +++ (Gcase activation greater than 60%) |
| Cc1cc(N2CCCC(F)(F)C2)nc2c(C(=O)NC(C)C(F)(F)F)cnn12 (centres unmarked) [III-179] | *** (greater than 20% Gcase activation) | +++ (Gcase activation greater than 60%) |
| Cc1cc(N2CCC(F)(F)C2)nc2c(C(=O)NC(C)C(F)(F)F)cnn12 (centres unmarked) [III-180] | ** (Gcase activation in the range of 10% up to 20%) | +++ (Gcase activation greater than 60%) |
| Cc1cc(N2CCC(F)(F)CC2)nc2c(C(=O)NC(C)C(F)(F)F)cnn12 (centres unmarked) [III-181] | * (less than 10% Gcase activation) | +++ (Gcase activation greater than 60%) |
| Cc1cc(-c2cccc3c2OCO3)nc2c(C(=O)N[C@@H](C)C3CC3)cnn12 [III-182] | *** (greater than 20% Gcase activation) | ++ (Gcase activation in the range of 30% up to 60%) |
| Cc1cc(-c2cccc3c2OCO3)nc2c(C(=O)NC(C3CC3)C(F)(F)F)cnn12 (centres unmarked) [III-183] | *** (greater than 20% Gcase activation) | +++ (Gcase activation greater than 60%) |
| Cc1cc(C)n2ncc(C(=O)NC(c3ccc(F)cc3)C(F)(F)F)c2n1 (centres unmarked) [III-184] | *** (greater than 20% Gcase activation) | +++ (Gcase activation greater than 60%) |

| SMILES | Percent Gcase Activation, 0.1 μM Test Compound | Percent Gcase Activation, 1 μM Test Compound |
| --- | --- | --- |
| Cc1cc(-c2ccc(C#N)o2)nc2c(C(=O)NC(C3CC3)C(F)(F)F)cnn12 (centres unmarked) [III-185] | *** (greater than 20% Gcase activation) | +++ (Gcase activation greater than 60%) |
| Cc1cc(-c2ccco2)nc2c(C(=O)NC(C3CC3)C(F)(F)F)cnn12 (centres unmarked) [III-186] | *** (greater than 20% Gcase activation) | +++ (Gcase activation greater than 60%) |
| Cc1cc(-c2ccoc2)nc2c(C(=O)NC(C3CC3)C(F)(F)F)cnn12 (centres unmarked) [III-187] | *** (greater than 20% Gcase activation) | +++ (Gcase activation greater than 60%) |
| Cc1cc(-c2cscc2C#N)nc2c(C(=O)NC(C3CC3)C(F)(F)F)cnn12 (centres unmarked) [III-188] | *** (greater than 20% Gcase activation) | +++ (Gcase activation greater than 60%) |
| Cc1cc(-c2sccc2C#N)nc2c(C(=O)NC(C3CC3)C(F)(F)F)cnn12 (centres unmarked) [III-189] | *** (greater than 20% Gcase activation) | +++ (Gcase activation greater than 60%) |
| Cc1cc(C)n2ncc(C(=O)N[C@H]3CC[C@H](OC(C)(C)C)CC3)c2n1 [III-190] | * (less than 10% Gcase activation) | + (less than 30% Gcase activation) |
| Cc1cc(C)n2ncc(C(=O)N[C@H]3CC[C@H](OCC(C)C)CC3)c2n1 [III-191] | * (less than 10% Gcase activation) | +++ (Gcase activation greater than 60%) |
| Cc1cc(-c2ccc3scnc3c2)nc2c(C(=O)N[C@@H](C)C3CC3)cnn12 [III-192] | *** (greater than 20% Gcase activation) | +++ (Gcase activation greater than 60%) |
| Cc1cc(-c2ccc3scnc3c2)nc2c(C(=O)N[C@H](C)C3CC3)cnn12 [III-193] | *** (greater than 20% Gcase activation) | +++ (Gcase activation greater than 60%) |
| COc1ccc(F)cc1-c1cc(C)n2ncc(C(=O)NC(C)C(F)(F)F)c2n1 (centres unmarked) [III-194] | *** (greater than 20% Gcase activation) | +++ (Gcase activation greater than 60%) |
| COc1ccc(F)cc1-c1cc(C)n2ncc(C(=O)N[C@H](C)C(F)(F)F)c2n1 [III-195] | *** (greater than 20% Gcase activation) | +++ (Gcase activation greater than 60%) |
| COc1ccc(F)cc1-c1cc(C)n2ncc(C(=O)N[C@@H](C)C(F)(F)F)c2n1 [III-196] | *** (greater than 20% Gcase activation) | +++ (Gcase activation greater than 60%) |
| Cc1cc(-c2ccns2)nc2c(C(=O)N[C@@H](C)C3CC3)cnn12 [III-197] | *** (greater than 20% Gcase activation) | +++ (Gcase activation greater than 60%) |
| Cc1cc(-c2ccns2)nc2c(C(=O)N[C@H](C)C3CC3)cnn12 [III-198] | * (less than 10% Gcase activation) | +++ (Gcase activation greater than 60%) |
| Cc1cc(-c2cnccc2F)nc2c(C(=O)NC(C)C(F)(F)F)cnn12 (centres unmarked) [III-199] | * (less than 10% Gcase activation) | ++ (Gcase activation in the range of 30% up to 60%) |
| Cc1cc(-c2cncc(Cl)c2)nc2c(C(=O)NC(C)C(F)(F)F)cnn12 (centres unmarked) [III-200] | *** (greater than 20% Gcase activation) | +++ (Gcase activation greater than 60%) |
| Cc1cc(-c2cncc(Cl)c2)nc2c(C(=O)N[C@H](C)C(F)(F)F)cnn12 [III-201] | *** (greater than 20% Gcase activation) | +++ (Gcase activation greater than 60%) |
